Results published in ChEMBL document CHEMBL1156829 (Proc Natl Acad Sci U S A, 2008).

How the values were obtained:
[1] = NOVARTIS: Cytotoxicity against human hepatocellular carcinoma cell line (Huh7); format: toxicity, cell-based, Huh-7; details: Huh7 cells (hepatocellular carcinoma cell line)
Plasmodium falciparum [2] = experiment: NOVARTIS: Inhibition of Plasmodium falciparum W2 (drug-resistant) proliferation in erythrocyte-based infection assay; format: functional, organism-based; details: Plasmodium falciparum, W2; read-out: EC50
Plasmodium falciparum [3] = experiment: NOVARTIS: Inhibition of Plasmodium falciparum 3D7 (drug-susceptible) proliferation in erythrocyte-based infection assay; format: functional, organism-based; details: Plasmodium falciparum, 3D7

C=C[C@H]1CN2CC[C@H]1C[C@@H]2[C@@H](OC(=O)c1ccc(OC)cc1)c1ccnc2ccccc12
CC50 [1]: 2.61 µM | EC50 (Plasmodium falciparum [2]): 0.0185 µM | EC50 (Plasmodium falciparum [3]): 0.243 µM

Cc1ncc(CN2CCC(C(=O)Nc3ccc(-c4nc5ccccc5o4)cc3)CC2)s1
CC50 [1]: > 100 µM | EC50 (Plasmodium falciparum [2]): 0.721 µM | EC50 (Plasmodium falciparum [3]): 0.74 µM

COC1C(OC2OC(C)C(O)C(C)(O)C2OC)c2c(cc3c(c2O)C(=O)c2c(ccc4c2OC2OC4(C)C(OC4CC(C)([N+](=O)[O-])C(OC5OC(C)C(O)C(C)(O)C5OC)C(C)O4)C(N(C)C)C2O)C3=O)CC1(C)O (centres undefined)
CC50 [1]: > 10 µM | EC50 (Plasmodium falciparum [2]): 0.0701 µM | EC50 (Plasmodium falciparum [3]): 0.131 µM

O=C(O)C1Cc2c([nH]c3ccccc23)C(c2ccc(Cl)cc2Cl)N1 (centres undefined)
CC50 [1]: > 100 µM | EC50 (Plasmodium falciparum [2]): 0.688 µM | EC50 (Plasmodium falciparum [3]): 1.02 µM

CCNC(=O)C=Cc1ccc(C(C)(C)C)cc1
CC50 [1]: > 100 µM | EC50 (Plasmodium falciparum [2]): 0.719 µM | EC50 (Plasmodium falciparum [3]): 0.616 µM

O=C(NCCCCCCCCCCNC(=O)Nc1ccc(C2=NCCCN2)cc1)Nc1ccc(C2=NCCCN2)cc1
CC50 [1]: > 10 µM | EC50 (Plasmodium falciparum [2]): 0.0693 µM | EC50 (Plasmodium falciparum [3]): 0.0542 µM

Cc1nc2ccc(Cl)cc2c(O)c1I
CC50 [1]: > 100 µM | EC50 (Plasmodium falciparum [2]): 0.714 µM | EC50 (Plasmodium falciparum [3]): 3.47 µM

O=C(CSc1nccn1C1CCCC1)Nc1cc(C(F)(F)F)ccc1Cl
CC50 [1]: > 100 µM | EC50 (Plasmodium falciparum [2]): 0.714 µM | EC50 (Plasmodium falciparum [3]): 0.545 µM

CC(=O)c1cccc(S(=O)(=O)NCCCNc2nc3cc(C)cc(C)c3cc2C#N)c1
CC50 [1]: > 100 µM | EC50 (Plasmodium falciparum [2]): 0.698 µM | EC50 (Plasmodium falciparum [3]): 1.15 µM

COc1ccc(-c2csc3ncnc(Cl)c23)cc1OC
CC50 [1]: > 100 µM | EC50 (Plasmodium falciparum [2]): 0.723 µM | EC50 (Plasmodium falciparum [3]): 2.32 µM

COc1cc(C=NNc2nc3ccccc3[nH]2)ccc1O
CC50 [1]: 43.1 µM | EC50 (Plasmodium falciparum [2]): 0.307 µM | EC50 (Plasmodium falciparum [3]): 0.205 µM

COC(=O)C1=C(C)NC2=C(C(=O)CC(c3ccc(OC)c(OC)c3)C2)C1c1ccc([N+](=O)[O-])cc1 (centres undefined)
CC50 [1]: > 100 µM | EC50 (Plasmodium falciparum [2]): 0.704 µM | EC50 (Plasmodium falciparum [3]): 2.68 µM

COc1ccc(Nc2nc(NN=Cc3cccc(F)c3)nc(Nc3ccc([N+](=O)[O-])cc3)n2)cc1
CC50 [1]: > 100 µM | EC50 (Plasmodium falciparum [2]): 0.704 µM | EC50 (Plasmodium falciparum [3]): 0.662 µM

CCCN1CCc2c(sc3nc(SCC(=O)OC)nc(N)c23)C1
CC50 [1]: > 100 µM | EC50 (Plasmodium falciparum [2]): 0.71 µM | EC50 (Plasmodium falciparum [3]): 1.66 µM

CCN(CC)CCNC(=O)c1cc(-c2cc3ccccc3s2)cc(-n2cnnn2)c1
CC50 [1]: 21.3 µM | EC50 (Plasmodium falciparum [2]): 0.151 µM | EC50 (Plasmodium falciparum [3]): 0.0616 µM

Oc1c(CN2CCCCC2)ccc2ccccc12
CC50 [1]: > 100 µM | EC50 (Plasmodium falciparum [2]): 0.727 µM | EC50 (Plasmodium falciparum [3]): 5.63 µM

COc1cc2c(N3CCOCC3)cc(O)c(CC(=O)Nc3ccccc3)c2cc1OC
CC50 [1]: > 100 µM | EC50 (Plasmodium falciparum [2]): 0.712 µM | EC50 (Plasmodium falciparum [3]): 0.626 µM

COc1ccc(CN2CCN(Cc3ccc(OC)c(C)c3C)C(CCO)C2)c(O)c1 (centres undefined)
CC50 [1]: > 44.1 µM | EC50 (Plasmodium falciparum [2]): 0.319 µM | EC50 (Plasmodium falciparum [3]): 1.65 µM

COc1ccc(-c2cn3c([n+]2-c2ccccc2)SCC3)cc1
CC50 [1]: > 100 µM | EC50 (Plasmodium falciparum [2]): 0.709 µM | EC50 (Plasmodium falciparum [3]): 0.582 µM

CCOC(=O)c1c(C)[n+](-c2ccc(C)cc2)c(CC)c2cc(OC)c(OC)cc12
CC50 [1]: > 94 µM | EC50 (Plasmodium falciparum [2]): 0.683 µM | EC50 (Plasmodium falciparum [3]): 0.702 µM

CC(C)(C)CC(C)(C)Nc1c(-c2ccccc2OC(=O)c2ccc(Cl)c(Cl)c2)nc2ccccn12
CC50 [1]: > 10 µM | EC50 (Plasmodium falciparum [2]): 0.0723 µM | EC50 (Plasmodium falciparum [3]): 0.92 µM

CCCCOc1ccc(C=CC(=O)NCc2ccco2)cc1
CC50 [1]: > 100 µM | EC50 (Plasmodium falciparum [2]): 0.717 µM | EC50 (Plasmodium falciparum [3]): 1.07 µM

COc1cccc(NC(=O)Cn2c(C)c(C(C)=O)c3ccccc32)c1
CC50 [1]: > 100 µM | EC50 (Plasmodium falciparum [2]): 0.713 µM | EC50 (Plasmodium falciparum [3]): 1.76 µM

CN(C)CCCNC1=NC=NC2C=C(Cl)C=CC12 (centres undefined)
CC50 [1]: > 100 µM | EC50 (Plasmodium falciparum [2]): 0.713 µM | EC50 (Plasmodium falciparum [3]): 0.29 µM

O=C(Nc1ccc(Cl)cc1)Nc1ccc(Br)cn1
CC50 [1]: > 100 µM | EC50 (Plasmodium falciparum [2]): 0.712 µM | EC50 (Plasmodium falciparum [3]): > 12.5 µM

COc1ccc(Nc2nc(NN=Cc3cccc(Cl)c3)nc(Nc3ccc([N+](=O)[O-])cc3)n2)cc1
CC50 [1]: > 100 µM | EC50 (Plasmodium falciparum [2]): 0.717 µM | EC50 (Plasmodium falciparum [3]): 0.603 µM

CCCC(=O)N(CCCC(C)Nc1cc(OC)cc2cccnc12)Cc1ccc(F)cc1 (centres undefined)
CC50 [1]: > 10 µM | EC50 (Plasmodium falciparum [2]): 0.0714 µM | EC50 (Plasmodium falciparum [3]): 0.385 µM

CN(CCCNc1ccc(C(=O)Nc2ccc(C(F)(F)F)cc2)cc1[N+](=O)[O-])Cc1ccccc1
CC50 [1]: > 100 µM | EC50 (Plasmodium falciparum [2]): 0.72 µM | EC50 (Plasmodium falciparum [3]): 0.316 µM

CCOC(=O)c1c(CNC)n(C)c2cc(Br)c(O)cc12
CC50 [1]: > 100 µM | EC50 (Plasmodium falciparum [2]): 0.691 µM | EC50 (Plasmodium falciparum [3]): 0.458 µM

Cc1ccc(C=NNC(=O)c2nnn(-c3nonc3N)c2-c2ccc([N+](=O)[O-])cc2)cc1
CC50 [1]: > 73 µM | EC50 (Plasmodium falciparum [2]): 0.503 µM | EC50 (Plasmodium falciparum [3]): 0.204 µM

Cc1ccc(F)cc1NC(=O)Cn1c2ccccc2c(=O)c2cc(Cl)ccc21
CC50 [1]: > 100 µM | EC50 (Plasmodium falciparum [2]): 0.694 µM | EC50 (Plasmodium falciparum [3]): 1.18 µM

c1ccc(CNc2nc(Nc3ccccc3)nc3ccccc23)cc1
CC50 [1]: 13.5 µM | EC50 (Plasmodium falciparum [2]): 0.0934 µM | EC50 (Plasmodium falciparum [3]): 0.158 µM

CCOC(=O)c1ccc(N2CCN(c3cc(C)ccc3C)CC2)c(NC(=O)Nc2ccc(Cl)cc2)c1
CC50 [1]: > 100 µM | EC50 (Plasmodium falciparum [2]): 0.691 µM | EC50 (Plasmodium falciparum [3]): > 3.54 µM

COc1ccc(CCNC(=S)Nc2ccccc2C)cc1OC
CC50 [1]: > 100 µM | EC50 (Plasmodium falciparum [2]): 0.698 µM | EC50 (Plasmodium falciparum [3]): 1.09 µM

O=C(Cn1cc([N+](=O)[O-])nc1[N+](=O)[O-])N1CCN(c2ccc(F)cc2)CC1
CC50 [1]: 33.6 µM | EC50 (Plasmodium falciparum [2]): 0.234 µM | EC50 (Plasmodium falciparum [3]): 1.07 µM

COc1cccc(-c2ccc(O)c(CN(C)C3CCCCC3)c2)n1
CC50 [1]: > 13 µM | EC50 (Plasmodium falciparum [2]): 0.0903 µM | EC50 (Plasmodium falciparum [3]): 1.15 µM

Cc1nc(N2CCN(c3ccccn3)CC2)c2c(C)c(C(=O)Nc3c(F)cccc3F)sc2n1
CC50 [1]: > 100 µM | EC50 (Plasmodium falciparum [2]): 0.694 µM | EC50 (Plasmodium falciparum [3]): 3.14 µM

COc1ccc(N2C(=O)[C@@H]3C[C@H]2CN3C(=O)c2cccc(Cn3nc(C)cc3C)c2)cc1Cl
CC50 [1]: > 3.8 µM | EC50 (Plasmodium falciparum [2]): 0.0267 µM | EC50 (Plasmodium falciparum [3]): > 1.25 µM

CC(=O)Nc1ccc(C2NC(=O)NC3=Nc4ccccc4SC(c4ccccc4)=C32)cc1 (centres undefined)
CC50 [1]: > 100 µM | EC50 (Plasmodium falciparum [2]): 0.689 µM | EC50 (Plasmodium falciparum [3]): 1.02 µM

CCOc1cccc(Nc2cc(C)nc3ncnn23)c1
CC50 [1]: > 100 µM | EC50 (Plasmodium falciparum [2]): 0.729 µM | EC50 (Plasmodium falciparum [3]): 0.679 µM

CCOC(=O)C1=C(C)NC2=C(C(=O)C(C(=O)OCC)C(c3ccccc3OC)C2)C1c1cc(OC)c(OC)c(OC)c1 (centres undefined)
CC50 [1]: > 100 µM | EC50 (Plasmodium falciparum [2]): 0.713 µM | EC50 (Plasmodium falciparum [3]): 1.5 µM

Cc1nnc(Nc2ccc(F)cc2)c2ccccc12
CC50 [1]: > 10 µM | EC50 (Plasmodium falciparum [2]): > 0.0689 µM | EC50 (Plasmodium falciparum [3]): > 1.25 µM

Cc1cccc(N2C(=O)C3C(C2=O)C2(c4ccccc4)C(=O)C3(c3ccccc3)C(c3ccccc3)=C2c2ccccc2)c1 (centres undefined)
CC50 [1]: > 100 µM | EC50 (Plasmodium falciparum [2]): 0.7 µM | EC50 (Plasmodium falciparum [3]): 1.64 µM

CN(C)c1cc[n+](CC(=O)c2cccs2)cc1
CC50 [1]: > 100 µM | EC50 (Plasmodium falciparum [2]): 0.688 µM | EC50 (Plasmodium falciparum [3]): 0.649 µM

CCOc1ccc(C(=O)C(CCC(C[N+]2(C)CCCCCC2)C(=O)c2ccc(OCC)cc2)C[N+]2(C)CCCCCC2)cc1 (centres undefined)
CC50 [1]: > 100 µM | EC50 (Plasmodium falciparum [2]): 0.693 µM | EC50 (Plasmodium falciparum [3]): 0.615 µM

Cc1cc(C)[n+](C)n1CC(O)Cn1c2ccccc2c2ccccc21 (centres undefined)
CC50 [1]: > 100 µM | EC50 (Plasmodium falciparum [2]): 0.691 µM | EC50 (Plasmodium falciparum [3]): 1.22 µM

Cc1cccc(C)c1-n1c(SCc2cccc(F)c2)nc2c(sc(=S)n2-c2c(C)cccc2C)c1=O
CC50 [1]: > 100 µM | EC50 (Plasmodium falciparum [2]): 0.728 µM | EC50 (Plasmodium falciparum [3]): 5.16 µM

CCCCOc1nc(-c2ccc(OC)cc2)n(C(=O)c2ccccc2OC)n1
CC50 [1]: > 100 µM | EC50 (Plasmodium falciparum [2]): 0.717 µM | EC50 (Plasmodium falciparum [3]): 8.97 µM

Fc1ccc(-c2cn3c([n+]2-c2ccccc2)SCC3)cc1
CC50 [1]: > 100 µM | EC50 (Plasmodium falciparum [2]): 0.713 µM | EC50 (Plasmodium falciparum [3]): 1.09 µM

CC(=O)Nc1nc(C)c(-c2csc(Nc3ccc(C)cc3)n2)s1
CC50 [1]: 23.6 µM | EC50 (Plasmodium falciparum [2]): 0.166 µM | EC50 (Plasmodium falciparum [3]): 0.24 µM

Cc1c(-c2ccccc2)c2ccccc2n1CCc1ccc(C)[n+](C)c1
CC50 [1]: > 100 µM | EC50 (Plasmodium falciparum [2]): 0.69 µM | EC50 (Plasmodium falciparum [3]): 0.647 µM

Cc1ccc(C[n+]2cc(-c3ccc(C)cc3)n3c2CCC3)cc1
CC50 [1]: 34.5 µM | EC50 (Plasmodium falciparum [2]): 0.24 µM | EC50 (Plasmodium falciparum [3]): 0.538 µM

COc1ccc2nc(C)cc(NN=Cc3cccs3)c2c1
CC50 [1]: 18.4 µM | EC50 (Plasmodium falciparum [2]): 0.134 µM | EC50 (Plasmodium falciparum [3]): 0.158 µM
